Test results taken from ChEMBL document CHEMBL6177960, “Rational design, optimization, and biological evaluation of novel pyrrolo-pyridone derivatives as potent and orally active Cbl-b inhibitors” (Eur J Med Chem, 2025).

Key:
[1] = Protein binding in Sprague-Dawley rat plasma assessed as unbound fraction at 5 uM incubated for 5 hrs by equilibrium dialysis based LC-MS analysis
[2] = Toxicity in female BALB/C mouse model implanted with mouse CT26 cells assessed as body weight gain at 10 mg/kg, po administered via gavage once daily and measured after 14 days; format: organism-based; details: in vivo, 336 h, time 14 day
[3] = Protein binding in Beagle dog plasma assessed as unbound fraction at 5 uM incubated for 5 hrs by equilibrium dialysis based LC-MS analysis
[4] = mouse, in vivo, iv, 1 mg/kg, 24 h
in vitro [5] = details: rhesus monkey, hepatocytes
in vivo [6] = details: male, CD-1(ICR), mouse, po, 10 mg/kg
in vitro [7] = details: mouse, hepatocytes
[8] = mouse, in vivo, po, 10 mg/kg, 24 h
in vivo [9] = details: male, CD-1(ICR), mouse, iv, 1 mg/kg
Description: C0 in male CD-1(ICR) mouse at 1 mg/kg, iv measured after 1440 mins by LC-MS/MS analysis

in vitro [10] = details: rat, hepatocytes
4T1 = assay: Antitumor activity against mouse 4T1 cells implanted in female BALB/C mouse model assessed as tumor growth inhibition at 30 mg/kg, po relative to control; details: 4T1, po, read-out: TGI
[11] = Plasma protein binding in CD-1 mouse at 5 uM incubated for 5 hrs by equilibrium dialysis based LC-MS analysis
[12] = Protein binding in cynomolgus monkey plasma assessed as unbound fraction at 5 uM incubated for 5 hrs by equilibrium dialysis based LC-MS analysis
[13] = Plasma protein binding in Sprague-Dawley rat at 5 uM incubated for 5 hrs by equilibrium dialysis based LC-MS analysis
in vivo [14] = details: male, CD-1(ICR), mouse, po, 10 mg/kg; remark: listed apart in the source
Description: MRTinfinity in male CD-1(ICR) mouse at 10 mg/kg, po measured after 1440 mins by LC-MS/MS analysis

in vitro [15] = details: human, hepatocytes
in vivo [16] = details: male, CD-1(ICR), mouse, po, 10 mg/kg; remark: listed apart in the source
Description: AUCinfinity in male CD-1(ICR) mouse at 10 mg/kg, po measured after 1440 mins by LC-MS/MS analysis

in vivo [17] = details: male, CD-1(ICR), mouse, po, 10 mg/kg; remark: listed apart in the source
Description: AUClast in male CD-1(ICR) mouse at 10 mg/kg, po measured after 1440 mins by LC-MS/MS analysis

in vivo [18] = details: male, CD-1(ICR), mouse, iv, 1 mg/kg; remark: listed apart in the source
Description: Half-life in male CD-1(ICR) mouse at 1 mg/kg, iv measured after 1440 mins by LC-MS/MS analysis

[19] = Protein binding in human plasma assessed as unbound fraction at 5 uM incubated for 5 hrs by equilibrium dialysis based LC-MS analysis
[20] = Plasma protein binding in human at 5 uM incubated for 5 hrs by equilibrium dialysis based LC-MS analysis
in vitro [21] = details: dog, hepatocytes
in vivo [22] = details: male, CD-1(ICR), mouse, iv, 1 mg/kg; remark: listed apart in the source
Description: Volume of distribution at steady state in male CD-1(ICR) mouse at 1 mg/kg, iv measured after 1440 mins by LC-MS/MS analysis

[23] = Plasma protein binding in Beagle dog at 5 uM incubated for 5 hrs by equilibrium dialysis based LC-MS analysis
[24] = Inhibition of immunosuppressive activity in PGE2-induced human T cells assessed as increase in cell proliferation preincubated with PGE2 for 15 mins followed by compound administration for 60 mins and measured after 72 hrs of anti-human CD28 antibody by flow cytometric analysis
in vivo [25] = details: male, CD-1(ICR), mouse, iv, 1 mg/kg; remark: listed apart in the source
Description: MRTinfinity in male CD-1(ICR) mouse at 1 mg/kg, iv measured after 1440 mins by LC-MS/MS analysis

in vitro [26] = details: dog, hepatocytes; remark: listed apart in the source
in vivo [27] = details: male, CD-1(ICR), mouse, po, 10 mg/kg; remark: listed apart in the source
in vivo [28] = details: male, CD-1(ICR), mouse, iv, 1 mg/kg; remark: listed apart in the source
Description: AUCinfinity in male CD-1(ICR) mouse at 1 mg/kg, iv measured after 1440 mins by LC-MS/MS analysis

[29] = Protein binding in CD-1 mouse plasma assessed as unbound fraction at 5 uM incubated for 5 hrs by equilibrium dialysis based LC-MS analysis
in vivo [30] = details: male, CD-1(ICR), mouse, po, 10 mg/kg; remark: listed apart in the source
Description: Half-life in male CD-1(ICR) mouse at 10 mg/kg, po measured after 1440 mins by LC-MS/MS analysis

in vivo [31] = details: male, CD-1(ICR), mouse, iv, 1 mg/kg; remark: listed apart in the source
Description: AUClast in male CD-1(ICR) mouse at 1 mg/kg, iv measured after 1440 mins by LC-MS/MS analysis

[32] = Inhibition of immunosuppressive activity in PGE2-induced human T cells assessed as increase in IL2 production preincubated with PGE2 for 15 mins followed by compound administration for 60 mins and measured after 48 hrs of anti-human CD28 antibody by ELISA; details: T-cell
[33] = Toxicity in female BALB/C mouse model implanted with mouse CT26 cells assessed as effect on body weight at 30 mg/kg, po administered via gavage once daily and measured after 14 days; details: in vivo, 336 h
in vivo [34] = details: male, CD-1(ICR), mouse, po, 10 mg/kg; remark: listed apart in the source
[35] = Plasma protein binding in cynomolgus monkey at 5 uM incubated for 5 hrs by equilibrium dialysis based LC-MS analysis
CT26 [36] = assay: Antitumor activity against mouse CT26 cells implanted in female BALB/C mouse model assessed as tumor growth inhibition at 10 mg/kg, po administered via gavage once daily and measured after 14 days relative to control; details: 336 h, read-out: TGI
CT26 [37] = assay: Antitumor activity against mouse CT26 cells implanted in female BALB/C mouse model assessed as tumor growth inhibition at 30 mg/kg, po administered via gavage once daily and measured after 14 days relative to control; details: 336 h, read-out: TGI
in vivo [38] = details: male, CD-1(ICR), mouse, iv, 1 mg/kg; remark: listed apart in the source
Description: Clearance in male CD-1(ICR) mouse at 1 mg/kg, iv measured after 1440 mins by LC-MS/MS analysis

[39] = Inhibition of immunosuppressive activity in PGE2-induced human T cells assessed as increase in IFNgamma production preincubated with PGE2 for 15 mins followed by compound administration for 60 mins and measured after 48 hrs of anti-human CD28 antibody by ELISA; details: T-cell
in vivo [40] = details: male, CD-1(ICR), mouse, iv, 1 mg/kg; remark: listed apart in the source
Description: Apparent volume of distribution in male CD-1(ICR) mouse at 1 mg/kg, iv measured after 1440 mins by LC-MS/MS analysis

[41] = mouse, hepatocytes, 2 h, 2 µM
[42] = Apparent permeability across basolateral to apical side in human Caco-2 cells assessed as drug recovery at 2 uM incubated for 2 hrs by LC-MS/MS analysis
[43] = Metabolic stability in human hepatocytes assessed as hepatic extraction ratio at 2 uM measured up to 120 mins by LC-MS/MS analysis
[44] = Apparent permeability across apical to basolateral side in human Caco-2 cells at 2 uM incubated for 2 hrs by LC-MS/MS analysis
[45] = human, hepatocytes, 2 h, 2 µM
[46] = Metabolic stability in monkey hepatocytes assessed as hepatic extraction ratio at 2 uM measured up to 120 mins by LC-MS/MS analysis; details: rhesus monkey
in vitro [47] = details: human, Caco-2
[48] = Metabolic stability in mouse hepatocytes assessed as hepatic extraction ratio at 2 uM measured up to 120 mins by LC-MS/MS analysis
[49] = Metabolic stability in dog hepatocytes assessed as hepatic extraction ratio at 2 uM measured up to 120 mins by LC-MS/MS analysis
[50] = Apparent permeability across apical to basolateral side in human Caco-2 cells assessed as drug recovery at 2 uM incubated for 2 hrs by LC-MS/MS analysis
[51] = rat, hepatocytes, 2 h, 2 µM
[52] = Apparent permeability across basolateral to apical side in human Caco-2 cells at 2 uM incubated for 2 hrs by LC-MS/MS analysis
[53] = target: E3 ubiquitin-protein ligase CBL-B (Homo sapiens, UniProt Q13191); assay: Binding affinity to Cbl-b (unknown origin) assessed as inhibition constant incubated for 60 mins by TR-FRET assay
Chain of E3 ubiquitin-protein ligase CBL-B (Q13191 whole entry): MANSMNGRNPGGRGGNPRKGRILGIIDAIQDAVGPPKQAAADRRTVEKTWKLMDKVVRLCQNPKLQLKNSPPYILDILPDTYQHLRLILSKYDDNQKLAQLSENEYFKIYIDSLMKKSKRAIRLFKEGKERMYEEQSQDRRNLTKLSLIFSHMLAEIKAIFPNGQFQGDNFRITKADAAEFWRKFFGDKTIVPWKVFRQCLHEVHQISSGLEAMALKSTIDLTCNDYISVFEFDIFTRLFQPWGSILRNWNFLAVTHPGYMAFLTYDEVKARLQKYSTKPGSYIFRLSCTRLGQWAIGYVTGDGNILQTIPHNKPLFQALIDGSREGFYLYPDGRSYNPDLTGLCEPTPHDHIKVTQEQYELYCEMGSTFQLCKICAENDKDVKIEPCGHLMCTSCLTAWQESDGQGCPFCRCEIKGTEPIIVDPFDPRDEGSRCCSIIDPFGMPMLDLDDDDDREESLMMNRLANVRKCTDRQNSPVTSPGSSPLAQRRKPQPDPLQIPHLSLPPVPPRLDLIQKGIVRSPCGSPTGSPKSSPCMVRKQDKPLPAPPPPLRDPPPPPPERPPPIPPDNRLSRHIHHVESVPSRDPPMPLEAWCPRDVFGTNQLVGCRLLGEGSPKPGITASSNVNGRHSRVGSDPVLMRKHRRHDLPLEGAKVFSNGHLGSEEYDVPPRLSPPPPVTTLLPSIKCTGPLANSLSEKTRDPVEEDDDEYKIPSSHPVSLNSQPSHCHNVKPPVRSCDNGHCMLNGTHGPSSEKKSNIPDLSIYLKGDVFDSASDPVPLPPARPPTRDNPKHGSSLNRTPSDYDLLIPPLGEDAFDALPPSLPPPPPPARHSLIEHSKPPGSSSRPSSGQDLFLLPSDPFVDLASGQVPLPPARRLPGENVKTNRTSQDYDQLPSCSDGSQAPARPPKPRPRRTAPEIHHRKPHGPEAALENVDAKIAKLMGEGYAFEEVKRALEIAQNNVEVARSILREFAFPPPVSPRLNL

[54] = Metabolic stability in rat hepatocytes assessed as hepatic extraction ratio at 2 uM measured up to 120 mins by LC-MS/MS analysis
[55] = rhesus monkey, hepatocytes, 2 h, 2 µM
CT26 [56] = assay: Antitumor activity against mouse CT26 cells implanted in female BALB/C mouse model assessed as tumor growth inhibition at 50 mg/kg, po administered via gavage once daily and measured after 14 days relative to control; details: 336 h, read-out: TGI

C[C@H]1CCCN(Cc2cc3c(C(F)(F)F)cn(-c4cccc([C@]5(c6nncn6C)C[C@@H](C)C5)c4)c(=O)c3[nH]2)C1
fraction unbound at 5 h, 5 µM [1]: 0.0419
Activity [2]: Toxic
fraction unbound at 5 h, 5 µM [3]: 0.0394
%AUCextra [4]: 1.2%
half-life at 2 h, 2 µM (in vitro [5]): 12.2 min
bioavailability at 24 h (in vivo [6]): 27.2%
half-life at 2 h, 2 µM (in vitro [7]): 14.3 min
%AUCextra [8]: 0.94%
C0 at 24 h (in vivo [9]): 406 ng/mL
half-life at 2 h, 2 µM (in vitro [10]): 40.7 min
inhibition in vivo at 30 mg/kg (4T1): 31.3%
fraction unbound at 5 h, 5 µM [11]: 0.0217
fraction unbound at 5 h, 5 µM [12]: 0.0179
fraction unbound at 5 h, 5 µM [13]: 0.0419
MRT inf at 24 h (in vivo [14]): 1.49 h
half-life at 2 h, 2 µM (in vitro [15]): 81.8 min
AUC(0-inf) at 24 h (in vivo [16]): 796 ng·h/mL
AUC(0-t) at 24 h (in vivo [17]): 789 ng·h/mL
half-life at 24 h (in vivo [18]): 55.7 min
fraction unbound at 5 h, 5 µM [19]: 0.0379
fraction unbound at 5 h, 5 µM [20]: 0.0379
CLint scaled at 2 h, 2 µM (in vitro [21]): 39.4 mL/min/kg
Vd at 24 h (in vivo [22]): 2.91 L/kg
fraction unbound at 5 h, 5 µM [23]: 0.0394
EC50 [24]: 1.4 nM
MRT inf at 24 h (in vivo [25]): 60.6 min
half-life at 2 h, 2 µM (in vitro [26]): 24.1 min
Cmax at 24 h (in vivo [27]): 480 ng/mL
AUC(0-inf) at 24 h (in vivo [28]): 292 ng·h/mL
fraction unbound at 5 h, 5 µM [29]: 0.0217
half-life at 24 h (in vivo [30]): 69 min
AUC(0-t) at 24 h (in vivo [31]): 289 ng·h/mL
EC50 [32]: 65.7 nM
Activity [33]: Non-toxic
Tmax at 24 h (in vivo [34]): 21.6 min
fraction unbound at 5 h, 5 µM [35]: 0.0179
inhibition in vivo at 10 mg/kg (CT26 [36]): 12.5%
inhibition in vivo at 30 mg/kg (CT26 [37]): 56.1%
clearance at 24 h (in vivo [38]): 57.8 mL/min/kg
EC50 [39]: 170 nM
Vd at 24 h (in vivo [40]): 4.66 L/kg

C[C@H]1CCCN(Cc2cc3c(c(C(F)(F)F)c2)CN(c2cccc([C@]4(c5nncn5C)C[C@@H](C)C4)c2)C3=O)C1
fraction unbound at 5 h, 5 µM [1]: 0.0736
CLH [41]: 79.8 mL/min/kg
fraction unbound at 5 h, 5 µM [3]: 0.078
%AUCextra [4]: 1.18%
half-life at 2 h, 2 µM (in vitro [5]): 9.3 min
bioavailability at 24 h (in vivo [6]): 24.6%
recovery at 2 h, 2 µM [42]: 81.3%
half-life at 2 h, 2 µM (in vitro [7]): 10.4 min
%AUCextra [8]: 4.76%
C0 at 24 h (in vivo [9]): 572 ng/mL
hepatic extraction ratio at 2 h, 2 µM [43]: 0.7
half-life at 2 h, 2 µM (in vitro [10]): 39.3 min
fraction unbound at 5 h, 5 µM [11]: 0.0434
fraction unbound at 5 h, 5 µM [12]: 0.044
fraction unbound at 5 h, 5 µM [13]: 0.0736
Papp A→B at 2 h, 2 µM [44]: 1.98 ×10⁻⁶ cm/s
MRT inf at 24 h (in vivo [14]): 1.72 h
half-life at 2 h, 2 µM (in vitro [15]): 46 min
CLH [45]: 14.3 mL/min/kg
AUC(0-inf) at 24 h (in vivo [16]): 690 ng·h/mL
AUC(0-t) at 24 h (in vivo [17]): 661 ng·h/mL
half-life at 24 h (in vivo [18]): 18.6 min
fraction unbound at 5 h, 5 µM [19]: 0.0522
fraction unbound at 5 h, 5 µM [20]: 0.0522
hepatic extraction ratio at 2 h, 2 µM [46]: 0.9
CLint scaled at 2 h, 2 µM (in vitro [21]): 50.8 mL/min/kg
Vd at 24 h (in vivo [22]): 1.55 L/kg
efflux ratio at 2 h, 2 µM (in vitro [47]): 18
hepatic extraction ratio at 2 h, 2 µM [48]: 0.9
hepatic extraction ratio at 2 h, 2 µM [49]: 0.9
fraction unbound at 5 h, 5 µM [23]: 0.078
EC50 [24]: 26.8 nM
recovery at 2 h, 2 µM [50]: 101%
CLH [51]: 25.2 mL/min/kg
MRT inf at 24 h (in vivo [25]): 26.4 min
half-life at 2 h, 2 µM (in vitro [26]): 5.2 min
Cmax at 24 h (in vivo [27]): 629 ng/mL
AUC(0-inf) at 24 h (in vivo [28]): 281 ng·h/mL
Papp B→A at 2 h, 2 µM [52]: 35.8 ×10⁻⁶ cm/s
Ki [53]: 1.84 nM
fraction unbound at 5 h, 5 µM [29]: 0.0434
half-life at 24 h (in vivo [30]): 161 min
AUC(0-t) at 24 h (in vivo [31]): 277 ng·h/mL
EC50 [32]: 894 nM
Activity [33]: Non-toxic
Tmax at 24 h (in vivo [34]): 19.8 min
fraction unbound at 5 h, 5 µM [35]: 0.044
hepatic extraction ratio at 2 h, 2 µM [54]: 0.8
CLH [55]: 37.5 mL/min/kg
clearance at 24 h (in vivo [38]): 59.7 mL/min/kg
EC50 [39]: 892 nM
Vd at 24 h (in vivo [40]): 1.62 L/kg

C[C@H]1CCCN(Cc2cc3c(C4CC4)cn(-c4cccc([C@]5(c6nncn6C)C[C@@H](C)C5)c4)c(=O)c3[nH]2)C1
%AUCextra [4]: 1.18%
bioavailability at 24 h (in vivo [6]): 27.2%
%AUCextra [8]: 14.2%
C0 at 24 h (in vivo [9]): 395 ng/mL
MRT inf at 24 h (in vivo [14]): 4.22 h
AUC(0-inf) at 24 h (in vivo [16]): 293 ng·h/mL
AUC(0-t) at 24 h (in vivo [17]): 243 ng·h/mL
half-life at 24 h (in vivo [18]): 40.8 min
inhibition in vivo at 50 mg/kg (CT26 [56]): 51%
Vd at 24 h (in vivo [22]): 3.19 L/kg
MRT inf at 24 h (in vivo [25]): 39.6 min
Cmax at 24 h (in vivo [27]): 77.9 ng/mL
AUC(0-inf) at 24 h (in vivo [28]): 205 ng·h/mL
half-life at 24 h (in vivo [30]): 140 min
AUC(0-t) at 24 h (in vivo [31]): 202 ng·h/mL
Tmax at 24 h (in vivo [34]): 120 min
clearance at 24 h (in vivo [38]): 82.1 mL/min/kg
Vd at 24 h (in vivo [40]): 4.82 L/kg
